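Compound exposure: 48 hours, 5 concentrations, 96-well plates. TGI is the concentration that stops growth completely.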
How the values were obtained:
Test in all cases: DTP human tumour cell line panel, 48 h
[1] = system: T-47D breast
[2] = system: HT29 colon
[3] = system: DU-145 prostate
[4] = system: TK-10 renal
[5] = system: HOP-92 NSCLC
[6] = system: EKVX NSCLC
[7] = system: ACHN renal
[8] = system: MDA-MB-435
[9] = system: BT-549 breast
[10] = system: M14 melanoma
[11] = system: PC-3 prostate
[12] = system: HCT-15 colon
[13] = system: HS 578T breast
[14] = system: SF-295 CNS
[15] = system: SNB-75 CNS
[16] = system: DMS 114 small cell lung
[17] = system: M19-MEL melanoma
[18] = system: DLD-1 colon
[19] = system: KM20L2 colon
[20] = system: DMS 273 small cell lung

SMILES | TGI [1] [µM] | TGI [2] [µM] | TGI [3] [µM] | TGI [4] [µM] | TGI [5] [µM] | TGI [6] [µM] | TGI [7] [µM] | TGI [8] [µM] | TGI [9] [µM] | TGI [10] [µM] | TGI [11] [µM] | TGI [12] [µM] | TGI [13] [µM] | TGI [14] [µM] | TGI [15] [µM] | TGI [16] [µM] | TGI [17] [µM] | TGI [18] [µM] | TGI [19] [µM] | TGI [20] [µM]
C=CCNC(=O)CN(CC(=O)OC)C1CCCCC1N(CC(=O)OC)CC(=O)OC (configuration not stated) | > 100 | > 100 | > 100 | > 100 | > 100 | > 100 | > 100 | > 100 | > 100 | > 100 | > 100 | > 100 | > 100 | > 100 |  |  |  |  |  | 
Cc1cn(C2CC(O)C(Cn3nncc3Cn3ncc(=O)[nH]c3=O)O2)c(=O)[nH]c1=O (configuration not stated) | > 100 |  | > 100 | > 100 | > 100 | > 100 | > 100 | > 100 | > 100 | > 100 | > 100 | > 100 | > 100 | > 100 |  |  |  |  |  | 
CC(C)=CC(=O)OC1C2C(C)=CC(O)C(O)C2(C)C2C3(O)OCC24C(CC(=O)OC14)C(C)C3O (configuration not stated) |  | 0.836 |  |  | 0.26 | 0.642 |  |  |  |  |  | 6.84 |  | 0.81 | 0.693 | 0.0567 | 0.127 | 0.485 | 4.57 | 0.101
O=C(O)C12CC3CC(C1)C2C=C3P(=O)(O)O (configuration not stated) |  | > 100 |  | > 100 | > 100 | > 100 | > 100 |  |  | > 100 |  | > 100 |  | > 100 | > 100 | > 100 | > 100 | > 100 | > 100 | > 100

Reference: PubChem BioAssay (NCI)
